Measurements: the supplement of paper PMC6045584
± gives the standard deviation of the averaged measurements.

Experiments:
XAV-939 = compound: Oc1nc(-c2ccc(C(F)(F)F)cc2)nc2c1CSCC2 [XAV-939]; assay: surviving fraction relative to DMSO-only wells; higher = less growth inhibition; settings: exposure time: 5 days
How it was run: (§1)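 Surviving fraction is CellTiter-Glo luminescence divided by the median of wells given DMSO only. For this, log-phase tumour cell lines went into 384-well plates at 250–500 cells per well and, 24 hours later, into five days of continuous inhibitor exposure at 0.5, 1, 5, 10, 50, 100, 500 and 1000 nM. Lines were screened three times and retained only if replicate Pearson r >0.7 and median Z' >0.3.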

FORETINIB = compound: COc1cc2c(Oc3ccc(NC(=O)C4(C(=O)Nc5ccc(F)cc5)CC4)cc3F)ccnc2cc1OCCCN1CCOCC1 [FORETINIB]; assay: as above; settings: exposure time: 5 days
How it was run: as §1

Test System	surviving fraction (XAV-939; 0.5 nM)	surviving fraction (XAV-939; 1 nM)	surviving fraction (XAV-939; 5 nM)	surviving fraction (XAV-939; 10 nM)	surviving fraction (XAV-939; 50 nM)	surviving fraction (XAV-939; 100 nM)	surviving fraction (XAV-939; 500 nM)	surviving fraction (XAV-939; 1000 nM)	surviving fraction (FORETINIB; 0.5 nM)	surviving fraction (FORETINIB; 1 nM)	surviving fraction (FORETINIB; 5 nM)	surviving fraction (FORETINIB; 10 nM)	surviving fraction (FORETINIB; 50 nM)	surviving fraction (FORETINIB; 100 nM)	surviving fraction (FORETINIB; 500 nM)	surviving fraction (FORETINIB; 1000 nM)
SKBR3 BREAST	1.07 ± 0.17	0.943 ± 0.089	1.04 ± 0.16	0.898 ± 0.054	1.11 ± 0.065	1.02 ± 0.1	0.854 ± 0.14	0.772 ± 0.053	1.11 ± 0.02	1.14 ± 0.15	1.08 ± 0.063	1.08 ± 0.15	1.13 ± 0.066	0.982 ± 0.064	0.886 ± 0.065	0.868 ± 0.11
SJSA1 BONE	1.1 ± 0.061	1.04 ± 0.053	1.06 ± 0.037	1.12 ± 0.055	1.16 ± 0.06	1.18 ± 0.037	1.07 ± 0.071	1.08 ± 0.014	1.14 ± 0.026	1.7 ± 0.03	1.69 ± 0.15	1.74 ± 0.063	1.48 ± 0.1	1.74 ± 0.075	1.46 ± 0.069	1.83 ± 0.038
LNCAP PROSTATE	0.85 ± 0.076	0.83 ± 0.11	0.94 ± 0.058	0.921 ± 0.054	0.797 ± 0.071	0.936 ± 0.1	0.741 ± 0.12	0.713 ± 0.14	1.04 ± 0.022	1.02 ± 0.046	0.968 ± 0.075	1.01 ± 0.1	0.997 ± 0.074	1.04 ± 0.039	0.261 ± 0.03	0.189 ± 0.028
DU4475 BREAST	1.02 ± 0.28	0.857 ± 0.17	0.884 ± 0.18	1.05 ± 0.12	1.07 ± 0.17	1.16 ± 0.18	1.15 ± 0.33	1.1 ± 0.25	0.942 ± 0.16	1.03 ± 0.019	0.931 ± 0.066	0.971 ± 0.19	0.979 ± 0.11	0.821 ± 0.13	0.715 ± 0.031	0.644 ± 0.043
SAOS2 BONE	1.16 ± 0.027	1.15 ± 0.041	1.21 ± 0.022	1.28 ± 0.05	1.26 ± 0.034	1.25 ± 0.051	1.14 ± 0.046	1.07 ± 0.072	1.17 ± 0.045	1.12 ± 0.072	1.12 ± 0.048	1.17 ± 0.069	1.15 ± 0.15	1.08 ± 0.15	0.611 ± 0.082	0.162 ± 0.03
H23 LUNG	0.953 ± 0.035	1.03 ± 0.062	1.04 ± 0.071	1.08 ± 0.075	1.01 ± 0.037	0.992 ± 0.02	0.391 ± 0.041	0.318 ± 0.024	1.04 ± 0.058	1.07 ± 0.073	1.06 ± 0.073	0.982 ± 0.035	0.976 ± 0.079	0.986 ± 0.08	0.889 ± 0.024	0.388 ± 0.015
SUM149 BREAST	1.02 ± 0.094	0.987 ± 0.05	0.971 ± 0.067	0.942 ± 0.034	0.854 ± 0.095	0.691 ± 0.037	0.432 ± 0.0091	0.328 ± 0.022	0.95 ± 0.004	0.912 ± 0.011	1.04 ± 0.17	0.9 ± 0.0082	0.831 ± 0.036	0.969 ± 0.13	0.353 ± 0.05	0.409 ± 0.021
SUM44 BREAST	1.02 ± 0.059	1.05 ± 0.051	1.05 ± 0.02	1.06 ± 0.044	1.08 ± 0.045	1.1 ± 0.025	1.07 ± 0.023	1.12 ± 0.06	1.14 ± 0.27	1.19 ± 0.36	1.18 ± 0.27	1.23 ± 0.31	1.19 ± 0.21	1.26 ± 0.32	1.11 ± 0.17	1.12 ± 0.19
CAL72 BONE	1.07 ± 0.023	1.05 ± 0.013	0.999 ± 0.015	0.976 ± 0.023	0.944 ± 0.012	0.957 ± 0.029	0.916 ± 0.038	0.9 ± 0.025	1.1 ± 0.12	1.08 ± 0.12	1.13 ± 0.016	1.11 ± 0.12	1.17 ± 0.069	1.13 ± 0.041	0.655 ± 0.13	0.326 ± 0.088
YAMATO SYNOVIAL	1.28 ± 0.22	1.22 ± 0.057	1.26 ± 0.095	1.34 ± 0.18	1.3 ± 0.049	1.24 ± 0.053	1 ± 0.095	1.09 ± 0.037	0.998 ± 0.072	1.16 ± 0.098	1 ± 0.12	1.02 ± 0.078	0.585 ± 0.025	0.369 ± 0.035	0.295 ± 0.017	0.272 ± 0.018
COLO320DM LARGE INTESTINE	1.1 ± 0.051	1.14 ± 0.069	1.08 ± 0.15	0.997 ± 0.11	1.08 ± 0.013	0.994 ± 0.075	0.827 ± 0.071	0.805 ± 0.088	1.09 ± 0.087	1.13 ± 0.066	1.07 ± 0.026	1.12 ± 0.076	1.05 ± 0.045	1.08 ± 0.11	0.517 ± 0.023	0.429 ± 0.05
VP229 BREAST	1.3 ± 0.093	1.34 ± 0.056	1.37 ± 0.14	1.23 ± 0.045	1.3 ± 0.075	1.41 ± 0.22	1.33 ± 0.26	1.3 ± 0.075	1.31 ± 0.085	1.09 ± 0.11	1.13 ± 0.14	1.07 ± 0.1	1.14 ± 0.11	1.05 ± 0.15	0.808 ± 0.14	0.616 ± 0.15
U2OS BONE	1.02 ± 0.028	1.04 ± 0.012	1.07 ± 0.032	1.06 ± 0.038	1.06 ± 0.014	1.04 ± 0.018	0.921 ± 0.02	0.8627 ± 0.0081	1.03 ± 0.018	1 ± 0.021	1.04 ± 0.034	1.01 ± 0.037	1.03 ± 0.059	0.958 ± 0.03	0.558 ± 0.028	0.344 ± 0.024
SCC90 HEADNECK	1.01 ± 0.1	1.11 ± 0.18	1.08 ± 0.077	1.13 ± 0.071	1.05 ± 0.03	1.05 ± 0.084	0.894 ± 0.032	0.918 ± 0.07	1.08 ± 0.073	1.02 ± 0.045	1.1 ± 0.19	1.08 ± 0.071	1.23 ± 0.061	1.12 ± 0.12	0.753 ± 0.077	0.753 ± 0.25
VCAP PROSTATE	0.963 ± 0.12	0.958 ± 0.077	1.08 ± 0.092	0.973 ± 0.089	0.957 ± 0.083	0.903 ± 0.088	0.848 ± 0.13	0.84 ± 0.024	0.975 ± 0.059	0.96 ± 0.13	1.12 ± 0.094	1.03 ± 0.082	1.11 ± 0.1	1.08 ± 0.2	0.547 ± 0.09	0.4 ± 0.044
SG32 HEADNECK	0.996 ± 0.26	1.02 ± 0.092	1.66 ± 1.1	1.13 ± 0.1	1.02 ± 0.12	1.08 ± 0.13	0.721 ± 0.17	0.603 ± 0.034	1.15 ± 0.13	1.24 ± 0.36	1.27 ± 0.19	1.22 ± 0.041	1.03 ± 0.1	1.17 ± 0.26	0.374 ± 0.011	0.264 ± 0.0095
